Laboratory results as given in article PMC7526454 (JCI Insight, 2020).
Where two headings read alike, the source gives them in different places.

Columns and labels:
[1] = steady state plasma total concentration, cited from earlier work
human serum albumin = molecular target: T1, human serum albumin (Homo sapiens, UniProt P02768); assay: Ligand affinity for albumin by albumin-shift cAMP assays (Schild regression); format: in vitro ADME; details: at 640 μM albumin, calculated from KA
T1 construct: For assays containing albumin from human serum; purchased MilliporeSigma A3782; host or cells: human serum
T1 sequence (P02768 25-609): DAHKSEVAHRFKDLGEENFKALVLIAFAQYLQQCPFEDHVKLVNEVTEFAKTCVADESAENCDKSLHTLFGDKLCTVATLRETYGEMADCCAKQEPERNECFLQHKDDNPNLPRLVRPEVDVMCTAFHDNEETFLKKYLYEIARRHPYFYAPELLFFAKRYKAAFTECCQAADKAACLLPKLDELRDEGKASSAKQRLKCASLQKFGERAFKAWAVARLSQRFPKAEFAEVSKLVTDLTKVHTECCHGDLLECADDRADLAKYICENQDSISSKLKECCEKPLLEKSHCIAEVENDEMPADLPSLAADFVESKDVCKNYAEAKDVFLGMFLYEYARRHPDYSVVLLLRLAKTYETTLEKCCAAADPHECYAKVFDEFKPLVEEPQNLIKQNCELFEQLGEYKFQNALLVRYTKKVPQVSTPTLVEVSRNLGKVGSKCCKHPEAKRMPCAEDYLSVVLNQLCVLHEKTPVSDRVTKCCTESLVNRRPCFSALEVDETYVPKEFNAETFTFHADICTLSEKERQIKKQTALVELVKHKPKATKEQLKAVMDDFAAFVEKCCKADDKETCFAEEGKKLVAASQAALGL
Protocol: Clonal HEK293 cells stably expressing either untagged human GIPR or human GLP-1R at various levels of receptor density were used for measurement of cAMP accumulation using the Gs Dynamic Assay and homogenous time-resolved fluorescence (62AM4PEJ, PerkinElmer). Corning 3570 white microtiter plates were used to collect 10 μL assay medium (DMEM, 31053, [Thermo Fisher Scientific], 2 mM Glutamax [35050, Thermo Fisher Scientific], 20 mM HEPES, 0.1% w/v bovine casein [4765, MilliporeSigma], and 250 μM isobutylmethylxanthine [IBMX] phosphodiesterase inhibitor) from a Multidrop Combi dispenser (Thermo Fisher Scientific). […] Vials of assay-ready cells were rapidly thawed from cryopreservation on the day of the assay. […] Time-resolved fluorescence was quantitated with a Pherastar FSX multilabel reader (BMG Labtech). Fluorescence data were analyzed by the ratio method, calibrated to external standards in a parallel processed plate, and reported as percent activation compared with vehicle minimum and native peptide maximum control wells. […]
Methods to quantify and predict the effect of albumin binding on biological activity in enzyme assays, receptor binding assays, and cell-based assays exist, but they are not currently widely employed ([57]–[59]). The general approach involves performing a bioassay in an albumin-free system and quantifying the effect of systematic titrations of albumin into the system. […]

In the case of `CC[C@H](C)[C@H](NC(=O)[C@H](Cc1ccccc1)NC(=O)[C@H](CCC(=O)O)NC(=O)[C@H](CCCCNC(=O)COCCOCCNC(=O)COCCOCCNC(=O)CC[C@H](NC(=O)CCCCCCCCCCCCCCCCC(=O)O)C(=O)O)NC(=O)[C@H](C)NC(=O)[C@H](C)NC(=O)[C@H](CCC(N)=O)NC(=O)CNC(=O)[C@H](CCC(=O)O)NC(=O)[C@H](CC(C)C)NC(=O)[C@H](Cc1ccc(O)cc1)NC(=O)[C@H](CO)NC(=O)[C@H](CO)NC(=O)[C@@H](NC(=O)[C@H](CC(=O)O)NC(=O)[C@H](CO)NC(=O)[C@@H](NC(=O)[C@H](Cc1ccccc1)NC(=O)[C@@H](NC(=O)CNC(=O)[C@H](CCC(=O)O)NC(=O)C(C)(C)NC(=O)[C@@H](N)Cc1cnc[nH]1)[C@@H](C)O)[C@@H](C)O)C(C)C)C(=O)N[C@@H](C)C(=O)N[C@@H](Cc1c[nH]c2ccccc12)C(=O)N[C@@H](CC(C)C)C(=O)N[C@H](C(=O)N[C@@H](CCCNC(=N)N)C(=O)NCC(=O)N[C@@H](CCCNC(=N)N)C(=O)NCC(=O)O)C(C)C` [Semaglutide, semaglutide], the “Css (total)” value ([1]; semaglutide 0.5 mg clinical dose) is given as 15 nM, the “Css (total)” value ([1]; semaglutide 1 mg clinical dose) is given as 30 nM and the predicted unbound fraction (human serum albumin) is given as 0.00072.
